Experimental data: paper PMC12154426, “TPP-Based Nanovesicles Kill MDR Neuroblastoma Cells and Induce Moderate ROS Increase, While Exerting Low Toxicity Towards Primary Cell Cultures: An In Vitro Study” (International Journal of Molecular Sciences, 2025)
Several values for one entry are separate records, joined by “and”; a condition that tells them apart may be missing. Equal entries are not always repeated.

Columns and labels:
spinal cord astrocytes = experiment: MTT cytotoxicity assay on spinal cord astrocyte primary cell cultures; assay type: cell-based, C57BL/6J mice; conditions: for IC50: 0.12–11.73 µM
Excerpt: (§1) Similarly to the assessment of haemolytic toxicity, the evaluation of cytotoxicity towards mammalian cells is another pivotal step to afford in the early stage of drug development, before undertaking other costly and time-consuming in vivo experiments. […] The cytotoxicity of quaternary phosphonium salts (QPSs) depends mainly on their physicochemical characteristics, including the number of carbon atoms of alkyl chains, the presence of aromatic ring(s) on which the P^+ cationic charge can delocalize, the type of counter anions, the possible colloidal properties, and the probable capability to form nano aggregates. The specific types of cells exposed to QPSs can further influence their cytotoxicity. In this regard, the constituents of membranes of cancer cells are different from those of mammalian cells. This makes them more susceptible to the disruptive action of cationic compounds, thus making QPSs’ possible cytotoxicity towards tumour cells higher than towards normal ones. Anyway, a certain cytotoxicity could manifest also in normal cells and quantifying it is mandatory. Based on these considerations, although NB is a neuroendocrine tumour which derives from neural crest cells, we investigated the BPPB toxic effects on primary cell cultures, namely spinal cord astrocytes and cortical neurons. Astrocyte primary cultures have emerged as an important tool for understanding the responses of normal cells under both physiological and pathological conditions. On the other hand, primary neuronal cell cultures are best suited for drug discovery and drug development. Primary cell cultures freshly prepared from animals reproduce physiological conditions astonishingly like the in vivo situation. As for our knowledge, it is the first time that the cytotoxicity of a bola amphiphilic compound is assessed on primary cultures of astrocytes and neurons. More generically, the existent studies on the cytotoxicity of synthetic QPSs, or of a generic exogenous synthetic cationic organic compound or polymer on astrocytes and neurons primary cell cultures, are limited. As examples, upon a rapid survey, we have found a study on the mechanism by which amine-modified cationic polystyrene nanoparticles induced cell death in a human brain astrocytoma cell line, but not in primary astrocytes. A study on the mechanism by which endogenous eosinophil cationic protein/RNase 3 induced cell death in primary astrocytes was found, but exogenous synthetic cationic compounds were not considered. Concerning primary neurons, the cytotoxicity of both a commercial (LA2000) and a newly prepared cationic lipid (Arg (TFA^−)) vs. primary neurons was assessed by Aoshima et al.. The cytotoxicity of a library of 80 compounds, among which only 2/3 molecules were cationic salts, was evaluated in human-induced pluripotent stem cell (iPSC)-derived neural stem cells, neurons, and astrocytes by Pei et al.. Vidal et al. assessed the neurotoxicity of a cationic fourth generation (G4) amine dendrimer (G4-NH2) towards primary neuron cell cultures. […] Cell viability in neurons and astrocytes, treated with increasing concentrations of BPPB for 24, 48, and 72 h, was assessed using the MTT essay, which is a method endowed with simplicity, convenience, quantitative and high throughput, as well as reproducibility. MTT is a well-established method for assessing cell viability, and its reliability is supported by standardized protocols in many areas of research.
Astrocytes were prepared from the spinal cord of neonatal 2-day-old C57BL/6J mice as previously described, with minor modifications. Briefly, two days after birth, pups (P1-2) were euthanized by cervical dislocation by trained personnel, and spinal cords were rapidly removed. […]

cortical neurons = experiment: MTT cytotoxicity assay on cortical neuron primary cell cultures; assay type: cell-based, Sprague Dawley rat; conditions: for IC50: 0.12–11.73 µM
Excerpt: as §1
Cortical neurons were prepared from the cortex of E16-E17 Sprague Dawley rat embryos, as previously described. The cortex was removed under binocular dissection (Nikon SMZ-2T, Tokyo, Japan) in a physiologic medium composed of 120 mM NaCl, 5 mM KCl, 25 mM HEPES, and 9 mM glucose (HIB, pH 7.4) at 4 °C. […]

HTLA 230 = experiment: DAPI and Annexin-V/PI staining (necrosis/apoptosis), HTLA 230; assay type: cell-based, human; conditions: 0.5 µM, 24 h
Excerpt: (§2) Although it has been reported that diverse therapeutic approaches to counteract cancer, including chemotherapeutic drugs, gamma irradiation, suicide genes, or immunotherapy, are mediated through the induction of apoptosis, also necrosis, as well as other forms of cell death, that are not classified so far, may be triggered by anticancer therapies. Here, to evaluate if BPPB induced apoptosis or necrosis, both NB cell populations were labelled with Annexin-V-FITC/propidium iodide (PI) and analysed by confocal fluorescence microscopy, as reported in the literature. This is a standard procedure to monitor the progression of apoptosis and the possible presence of necrosis. […]
(§3) After the treatment, cells were washed with PBS and stained with the fluorescent DNA dye DAPI (1 µg/mL) for 30 min. After additional washing, the images were immediately acquired in the fluorescence mode using a Nikon AX R confocal microscope equipped with a PLAN APO 20× (Nikon Europe, B.V., Amstelveen, The Netherlands).
(§4) Apoptotic and necrotic cells were analysed, as described in Marengo et al.. […] After staining, the images were immediately acquired in fluorescence mode using a Nikon AX R confocal microscope equipped with a PLAN APO 20× (Nikon Europe, B.V., Amstelveen, The Netherlands).

HTLA ER = experiment: DAPI and Annexin-V/PI staining (necrosis/apoptosis), HTLA ER; assay type: cell-based, human; conditions: 24 h
Excerpt: as §2, §3, §4

Compound c1ccc([P+](CCCCCCCCCCCC[P+](c2ccccc2)(c2ccccc2)c2ccccc2)(c2ccccc2)c2ccccc2)cc1 [BPPB, 1,1-(1,12-dodecanediyl)-bis-[1,1,1]-triphenyl phosphonium di-bromide] has a cell viability (spinal cord astrocytes; 1.17 µM, 48 h) of 72.17%, a cell viability (spinal cord astrocytes; 1.17 µM, 72 h) of 69.31% and a cell viability (spinal cord astrocytes; 2.93 µM, 24 h) of 74.95%. It also gave a cell viability (spinal cord astrocytes; 8.80 µM, 24 h) of 47.14%, a cell viability (spinal cord astrocytes; 8.80 µM, 72 h) of 42.70% and a cell viability (spinal cord astrocytes; 11.73 µM, 24 h) of 20.22%. For the same compound, the cell viability (spinal cord astrocytes; 11.73 µM, 48 h) was 45.18%, the IC50 (spinal cord astrocytes; 24 h exposure) was ~7.04 µM and 7.04 µM and the IC50 (spinal cord astrocytes; 48 h exposure) was 11 ± 5.09 µM. The IC50 (spinal cord astrocytes; 72 h exposure) was 5.09 ± 1.22 µM, the “SI values with respect to primary spinal cord astrocytes” value (spinal cord astrocytes; HTLA 230 and HTLA ER, all exposure timings) was 4.25–23.73 and the selectivity index values (spinal cord astrocytes; NB cells with respect to neurons and astrocytes, maximum) was “up to 23.7”. The “SI 24 h” value (spinal cord astrocytes; Spinal cord astrocytes vs. HTLA 230, 24 h) was 7.61, the “SI 48 h” value (spinal cord astrocytes; Spinal cord astrocytes vs. HTLA 230, 48 h) was 23.73 and the “SI 72 h” value (spinal cord astrocytes; Spinal cord astrocytes vs. HTLA 230, 72 h) was 13.09. For the same compound, the “SI 24 h” value (spinal cord astrocytes; Spinal cord astrocytes vs. HTLA ER, 24 h) was 5.69, the “SI 48 h” value (spinal cord astrocytes; Spinal cord astrocytes vs. HTLA ER, 48 h) was 8.10 and the “SI 72 h” value (spinal cord astrocytes; Spinal cord astrocytes vs. HTLA ER, 72 h) was 4.25. It also gave a cell viability (cortical neurons; 0.12 µM, 24 h) of 89.49%, a cell viability (cortical neurons; 0.12 µM, 48 h) of 96.77% and a cell viability (cortical neurons; 0.12 µM, 72 h) of 95.90%. For the same compound, the cell viability (cortical neurons; 0.29 µM, 72 h) was 71.80%, the cell viability (cortical neurons; 1.80 µM, 48 h) was 57.15% and the cell viability (cortical neurons; 11.73 µM (10.0 µg/mL), 24 h) was 14.80%. For the same compound, the cell viability (cortical neurons; 11.73 µM (10.0 µg/mL), 48 h) was 20.03%, the cell viability (cortical neurons; 11.73 µM (10.0 µg/mL), 72 h) was 10.63% and the IC50 (cortical neurons; 24 h exposure) was 1.56 ± 0.278 µM. For the same compound, the IC50 (cortical neurons; 48 h exposure) was 2.21 ± 0.337 µM, the IC50 (cortical neurons; 72 h exposure) was 0.763 ± 0.127 µM and the “SI 24 h” value (cortical neurons; Cortical neurons vs. HTLA 230, 24 h) was 1.69. The “SI 48 h” value (cortical neurons; Cortical neurons vs. HTLA 230, 48 h) was 4.78, the “SI 72 h” value (cortical neurons; Cortical neurons vs. HTLA 230, 72 h) was 1.96 and the “SI 24 h” value (cortical neurons; Cortical neurons vs. HTLA ER, 24 h) was 1.26. The “SI 48 h” value (cortical neurons; Cortical neurons vs. HTLA ER, 48 h) was 1.63, the “SI 72 h” value (cortical neurons; Cortical neurons vs. HTLA ER, 72 h) was 0.64 and the “SI values with respect to primary cortical neurons” value (cortical neurons; HTLA 230 and HTLA ER, all exposure timings except HTLA ER 72 h) was 1.26–4.78. The “apoptosis (Annexin V-FITC / PI labelling)” value (HTLA 230) was “marked apoptosis”, the “necrosis (DAPI labelling)” value (HTLA 230) was “seemed to induce the necrosis” and the “apoptosis (Annexin V-FITC / PI labelling)” value (HTLA ER; 1 µM) was “marked apoptosis”. The “necrosis (DAPI labelling)” value (HTLA ER; 1.0 µM) was “did not induce the necrosis”.
